Experimental data as given in US11453897B2, “Method for producing aminobenzoic acid or an aminobenzoic acid derivative product” (Covestro Intellectual Property GmbH & Co. KG, priority 2018, dated 2022).

Experiment: Dissolution of calcium ortho-aminobenzoate by salt exchange with ammonium ions (ammonium carbonate stock solution)
Format: physicochemical
Protocol: 48.0 g of anhydrous calcium chloride was added to 1.00 L of fermentation broth. The pH was adjusted to a value of 7.0 by adding hydrochloric acid. 100 g of ortho-aminobenzoic acid (dissolved in sodium hydroxide solution at pH 7.0) was then added to this mixture by adding 200 mL of oAB STOCK SOLUTION. There was briefly precipitation of calcium ortho-aminobenzoate. The concentration of dissolved ortho-aminobenzoic acid measured in the aqueous phase was 18.0 g/L. The solids fraction of the mixture was filtered off and dried at 80° C. for 48 h. In this way, 110 g of dried solid material was obtained. 20.0 g of that was added to 50.0 mL of AMMONIUM STOCK SOLUTION 1, the mixture was stirred and the concentration of dissolved ortho-aminobenzoic acid was determined. The latter was 146 g/L.
48.0 g of anhydrous calcium chloride was added to 800 mL of water. The pH was adjusted to a value of 7.0 by adding hydrochloric acid. […] The concentration of dissolved ortho-aminobenzoic acid measured in the aqueous phase was 18.0 g/L. The solids fraction of the mixture was filtered off and dried at 80° C. for 48 h. […] 20.0 g of that was added to 25.0 mL of AMMONIUM STOCK SOLUTION 2, the mixture was stirred and the concentration of dissolved ortho-aminobenzoic acid was determined.

Q: Which “concentration of dissolved ortho-aminobenzoic acid after salt exchange” value (20.0 g dried solid in 25.0 mL ammonium carbonate 210 g/L (Example 2)) does the source give for calcium ortho-aminobenzoate here?
A: The value was 175000 µg/mL.

Q: What about the “concentration of dissolved ortho-aminobenzoic acid after salt exchange” value (20.0 g dried solid in 50.0 mL ammonium carbonate 105 g/L (Example 1)) of the same substance?
A: Its value is 146000 µg/mL.
